# Reference: patent US5068247A, “2-aminopentanoic acid compounds and their use as immunosuppressants” (priority 1989, dated 1991)
# Key:
# [1] = system: allo-reactive cytotoxic T cell (EL4 target cells); test: suppression of induction of allo-reactive cytotoxic T cell in mouse allogenic mixed lymphocyte culture (MLC), 51Cr release; type: cell-based
# Procedure: The target cells used were leukemia cells EL4 from the syngenic (H-2^b) C57BL/6 mouse as used for preparation of the stimulator cells. By incubating 10^6 EL4 cells in the presence of 370 KBq of Na2^51 CrO4 at 37° C. for 1 hour, ^51 Cr was incorporated into the cytoplasm. The cells were washed, adjusted to the concentration of 10^4 cells/ml and used as the target cells.
# For the assay of the cytotoxic activity, 100 μl of the effector cell suspension and 100 μl of the target cell suspension were added to a 96-well flat-bottomed microculture plate, and cultured at 37° C. for 4 hours. The amount of ^51 Cr released into the supernatant was determined and the cytotoxic activity was calculated by the following formula. [formula]
# The activity of the cytotoxic T cell is expressed by LU (lytic unit) per 10^6 effector cells.
# [2] = system: IL-2 production in mouse allogenic MLC; test: suppression of IL-2 production in mouse allogenic MLC; type: cell-based
# Procedure: Mouse allogenic MLC was carried out as follows:
# After termination of culture, the supernatant was collected and used as the supernatant of mouse allogenic MLC.
# The IL-2 and IL-3 activities in the supernatant of mouse allogenic MLC were assayed in the same way as in Experiment Example 4.
# [3] = system: IL-1 response of mouse thymocytes; test: suppression of the IL-1 response of mouse thymocytes; type: cell-based; details: IL-1 50 U/ml
# Procedure: The thymus was resected from 6-week-old male C3H/HeN mice, and a single cell suspension was prepared using the serum-free RPMI1640 culture medium. After washing three times, the cell suspension was adjusted to a concentration of 1.5×10^7 cells/ml in the RPMI1640 culture medium supplemented with 10^-4 M 2-mercaptoethanol and 20% FCS. […] After termination of culture, 18.5 KBq/well of ^3 H-thymidine was added thereto. After culturing the suspension for further 18 hours, the cells were harvested by a cell harvester, and the radioactivity incorporated into the cells was measured by a liquid scintillation counter, which was used as an index of IL-1, IL-2 or IL-4 response. The suppression of IL-1, IL-2 or IL-4 response was evaluated by calculating the percent suppression by the following formula. [formula]
# [4] = system: allo-reactive cytotoxic T cells in spleen of EL4-immunized BALB/c mice; test: suppression of allo-reactive cytotoxic T cells induced by immunization of mouse with allogenic cells; type: in vivo
# Procedure: Male 5- to 7-week-old BALB/c mice (H-2^d) were immunized with leukemia cell EL4 derived from C57BL/6 mice (H-2^b) (10^7 cells/mouse, intraperitoneal administration), and the test substance was administered intraperitoneally 5 times at the doses of 0.001 to 3 mg/kg/day or orally at the doses of 0.3 to 10 mg/kg/day from the day of immunization. Nine to ten days after immunization, the spleen was resected from the mice to prepare a single cell suspension and the suspension was used as effector cell suspension. The ^51 Cr-release assay was carried out in the same way as in Experiment Example 3, using EL4 cells as the target cells to measure the cytotoxic activity.
# The activity of allo-reactive cytotoxic T cell is indicated by lytic unit (LU) per spleen. One lytic unit (LU) is defined as the number of effector cells required to cause 25% lysis of 5×10^3 target cells. At the same time, the body weight of mouse and number of spleen cells were also determined.
# [5] = 0.001 mg/kg/day ip × 5, Table 9C
# [6] = 0.001 mg/kg/day po × 5, Table 9D
# [7] = 0.003 mg/kg/day ip × 5, Table 9C
# [8] = 0.003 mg/kg/day po × 5, Table 9D
structure (smiles),measurement,setting,value
CCCCCCCCCCCCC/C=C/C[C@@H](O)[C@H](O)[C@@](N)(CO)C(=O)O [Example 5],Cytotoxic activity,"[1]; 0.00001 μg/ml, C3H/HeN responder",9.8 LU/10^6
same,Cytotoxic activity,"[1]; 0.0001 μg/ml, BALB/c responder",9.2 LU/10^6
same,Cytotoxic activity,"[1]; 0.0001 μg/ml, C3H/HeN responder",8.0 LU/10^6
same,Cytotoxic activity,"[1]; 0.001 μg/ml, BALB/c responder",3.7 LU/10^6
same,Cytotoxic activity,"[1]; 0.001 μg/ml, C3H/HeN responder",6.8 LU/10^6
same,Cytotoxic activity,"[1]; 0.01 μg/ml, BALB/c responder",1.6 LU/10^6
same,Cytotoxic activity,"[1]; 0.01 μg/ml, C3H/HeN responder",< 0.5 LU/10^6
same,Cytotoxic activity,"[1]; 0.1 μg/ml, BALB/c responder",< 0.5 LU/10^6
same,Cytotoxic activity,"[1]; 0.1 μg/ml, C3H/HeN responder",< 0.5 LU/10^6
same,Cytotoxic activity,"[1]; 1 μg/ml, BALB/c responder",< 0.5 LU/10^6
same,Cytotoxic activity,"[1]; 1 μg/ml, C3H/HeN responder",< 0.5 LU/10^6
same,inhibition at 10 pg/mL,"[1]; Mus musculus, T-cell, 144 h, 0.00001 μg/ml, C3H/HeN responder",35.4%
same,inhibition at 0.0001 µg/mL,"[1]; Mus musculus, T-cell, 144 h, 0.0001 μg/ml, BALB/c responder",34.1%
same,inhibition at 0.0001 µg/mL,"[1]; Mus musculus, T-cell, 144 h, 0.0001 μg/ml, C3H/HeN responder",47.5%
same,inhibition at 0.001 µg/mL,"[1]; Mus musculus, T-cell, 144 h, 0.001 μg/ml, C3H/HeN responder",54.2%
same,inhibition at 0.01 µg/mL,"[1]; Mus musculus, T-cell, 144 h, 0.01 μg/ml, C3H/HeN responder",> 95%
same,inhibition at 0.1 µg/mL,"[1]; Mus musculus, T-cell, 144 h, 0.1 μg/ml, C3H/HeN responder",> 95%
same,inhibition at 1 µg/mL,"[1]; Mus musculus, T-cell, 144 h, 1 μg/ml, C3H/HeN responder",> 95%
same,inhibition at 0.001 µg/mL,"[1]; Mus musculus, T-cell, 144 h, 0.001 μg/ml, BALB/c responder",73.2%
same,inhibition at 0.01 µg/mL,"[1]; Mus musculus, T-cell, 144 h, 0.01 μg/ml, BALB/c responder",88.4%
same,inhibition at 0.1 µg/mL,"[1]; Mus musculus, T-cell, 144 h, 0.1 μg/ml, BALB/c responder",> 95%
same,inhibition at 1 µg/mL,"[1]; Mus musculus, T-cell, 144 h, 1 μg/ml, BALB/c responder",> 95%
same,"induction of the allo-reactive cytotoxic T cell (in words), BALB/c responder",[1]; Table 3A,markedly inhibited
same,"induction of the allo-reactive cytotoxic T cell (in words), C3H/HeN responder",[1]; Table 3B,suppressed
same,IL-2 activity,[2]; 0.0001 μg/ml,3.2 U/ml
same,IL-2 activity,[2]; 0.001 μg/ml,2.9 U/ml
same,IL-2 activity,[2]; 0.01 μg/ml,< 1.0 U/ml
same,IL-2 activity,[2]; 0.1 μg/ml,< 1.0 U/ml
same,IL-2 activity,[2]; 1 μg/ml,< 1.0 U/ml
same,inhibition at 0.0001 µg/mL,"[2]; Mus musculus, 48 h, 0.0001 μg/ml",28.9%
same,inhibition at 0.001 µg/mL,"[2]; Mus musculus, 48 h, 0.001 μg/ml",35.6%
same,inhibition at 0.01 µg/mL,"[2]; Mus musculus, 48 h, 0.01 μg/ml",100%
same,inhibition at 0.1 µg/mL,"[2]; Mus musculus, 48 h, 0.1 μg/ml",100%
same,inhibition at 1 µg/mL,"[2]; Mus musculus, 48 h, 1 μg/ml",100%
same,3H-thymidine uptake,[3]; 0.0001 μg/ml,10320 ± 1490 cpm
same,3H-thymidine uptake,[3]; 0.001 μg/ml,7756 ± 686 cpm
same,3H-thymidine uptake,[3]; 0.01 μg/ml,1239 ± 548 cpm
same,3H-thymidine uptake,[3]; 0.1 μg/ml,595 ± 144 cpm
same,3H-thymidine uptake,[3]; 1 μg/ml,419 ± 36 cpm
same,inhibition at 0.0001 µg/mL,"[3]; Mus musculus, Thymocyte, 72 h, 0.0001 μg/ml",11.3%
same,inhibition at 0.001 µg/mL,"[3]; Mus musculus, Thymocyte, 72 h, 0.001 μg/ml",33.7%
same,inhibition at 0.01 µg/mL,"[3]; Mus musculus, Thymocyte, 72 h, 0.01 μg/ml",90.7%
same,inhibition at 0.1 µg/mL,"[3]; Mus musculus, Thymocyte, 72 h, 0.1 μg/ml",96.3%
same,inhibition at 1 µg/mL,"[3]; Mus musculus, Thymocyte, 72 h, 1 μg/ml",97.8%
same,Body weight 9 days after immunization,[4]; [5],23.6 ± 1.1 g
same,Cytotoxic T cell activity,[4]; [5],589 ± 415 LU/spleen
same,"Cytotoxic T cell activity, suppression",[4]; [5],49.7%
same,Number of spleen cells,[4]; [5],1.8 ± 0.2 × 10^8 cell
same,Body weight 10 days after immunization,[4]; [6],24.5 ± 1.7 g
same,Cytotoxic T cell activity,[4]; [6],1929 ± 630 LU/spleen
same,"Cytotoxic T cell activity, suppression",[4]; [6],0%
same,Number of spleen cells,[4]; [6],1.5 ± 0.2 × 10^8
same,Body weight 9 days after immunization,[4]; [7],22.8 ± 1.6 g
same,Cytotoxic T cell activity,[4]; [7],473 ± 265 LU/spleen
same,"Cytotoxic T cell activity, suppression",[4]; [7],59.6%
same,Number of spleen cells,[4]; [7],1.8 ± 0.2 × 10^8 cell
same,Body weight 10 days after immunization,[4]; [8],24.6 ± 1.1 g
same,Cytotoxic T cell activity,[4]; [8],1069 ± 400 LU/spleen
same,"Cytotoxic T cell activity, suppression",[4]; [8],30.2%
same,Number of spleen cells,[4]; [8],1.6 ± 0.3 × 10^8
same,Body weight 10 days after immunization,"[4]; 0.003 mg/kg/day po × 10, Table 9E",25.0 ± 0.7 g
